Publication PMC11603275, “Synthesis and Antimicrobial Evaluation of New 1,2,4-Triazolo[1,5-a]pyrimidine-Based Derivatives as Dual Inhibitors of Bacterial DNA Gyrase and DHFR” (ACS Omega, 2024)

Key:
B. subtilis = assay: Modified disk diffusion, inhibition zone; details: B. subtilis (G+)
S. aureus = assay: Modified disk diffusion, inhibition zone; details: S. aureus (G+)
E. coli = assay: Modified disk diffusion, inhibition zone; details: E. coli (G-)
P. aeruginosa = assay: Modified disk diffusion, inhibition zone; details: P. aeruginosa (G-)
A. flavus = assay: Modified disk diffusion, inhibition zone; details: A. flavus (fungi)
C. albicans = assay: Modified disk diffusion, inhibition zone; details: C. albicans (fungi)
[1] = system: Gram-positive and Gram-negative bacteria (B. subtilis, S. aureus, E. coli, P. aeruginosa); assay: Disk diffusion, inhibition zones summarised over the tested bacterial strains; details: over the four tested bacterial strains

Structure (SMILES)	melting point [°C]	Inhibition Zone (IZ) Diameter (B. subtilis) [mm/mL]	Inhibition Zone (IZ) Diameter (S. aureus)	Inhibition Zone (IZ) Diameter (E. coli) [mm/mL]	Inhibition Zone (IZ) Diameter (P. aeruginosa) [mm/mL]	Inhibition Zone (IZ) Diameter (A. flavus) [mm/mL]	Inhibition Zone (IZ) Diameter (C. albicans) [mm]	Inhibition Zone (IZ) Diameter [1]
c1ccc(-c2cc(-c3ccccc3)n3nc(-c4ccccc4)nc3n2)cc1 [Compound 9a, 2,5,7-Triphenyl-1,2,4-triazolo[1,5-a]pyrimidine]	210 to 212	12	14	14	12	7	10	–
Clc1ccc(-c2cc(-c3ccccc3)nc3nc(-c4ccccc4)nn23)cc1 [Compound 9b, 7-(4-Chlorophenyl)-2,5-diphenyl-1,2,4-triazolo[1,5-a]pyrimidine]	214 to 216	21	23	23	24	11	15	–
Cc1ccc(-c2cc(-c3ccccc3)nc3nc(-c4ccccc4)nn23)cc1 [Compound 9c, 2,5-Diphenyl-7-p-tolyl-1,2,4-triazolo[1,5-a]pyrimidine]	218 to 220	11	15	13	13	7	10	–
Clc1ccc(-c2cc(-c3ccccc3)n3nc(-c4ccccc4)nc3n2)cc1 [Compound 9e, 5-(4-Chlorophenyl)-2,7-diphenyl-1,2,4-triazolo[1,5-a]pyrimidine]	260 to 262	10	12	12	11	5	8	–
Clc1ccc(-c2cc(-c3ccc(Cl)cc3)n3nc(-c4ccccc4)nc3n2)cc1 [Compound 9f, 5,7-Bis(4-Chlorophenyl)-2-phenyl-1,2,4-triazolo[1,5-a]pyrimidine]	202 to 204	14	15	15	18	8	12	–
Cc1ccc(-c2cc(-c3ccc(Cl)cc3)nc3nc(-c4ccccc4)nn23)cc1 [Compound 9g, 5-(4-Chlorophenyl)-2-phenyl-7-p-tolyl-1,2,4-triazolo[1,5-a]pyrimidine]	248 to 250	19	20	20	18	9.0	11	18–20 mm
COc1ccc(-c2cc(-c3ccc(Cl)cc3)nc3nc(-c4ccccc4)nn23)cc1 [Compound 9h, 5-(4-Chlorophenyl)-7-(4-methoxyphenyl)-2-phenyl-1,2,4-triazolo[1,5-a]pyrimidine]	–	9	–	11	12	5	–	–
Cc1ccc(-c2cc(-c3ccccc3)n3nc(-c4ccccc4)nc3n2)cc1 [Compound 9i, 2,7-Diphenyl-5-p-tolyl-1,2,4-triazolo[1,5-a]pyrimidine]	–	28	–	30	29	17	–	–
Cc1ccc(-c2cc(-c3ccc(Cl)cc3)n3nc(-c4ccccc4)nc3n2)cc1 [Compound 9j, 7-(4-Chlorophenyl)-2-phenyl-5-p-tolyl-1,2,4-triazolo[1,5-a]-pyrimidine]	–	20	–	20	20	10	–	–
Cc1ccc(-c2cc(-c3ccc(C)cc3)n3nc(-c4ccccc4)nc3n2)cc1 [Compound 9k, 2-Phenyl-5,7-di-p-tolyl-1,2,4-triazolo[1,5-a]pyrimidine]	224 to 226	32	32	30	30	22	25	30–32 mm
COc1ccc(-c2cc(-c3ccc(C)cc3)nc3nc(-c4ccccc4)nn23)cc1 [Compound 9l, 7-(4-Methoxyphenyl)-2-phenyl-5-p-tolyl-1,2,4-triazolo[1,5-a]pyrimidine]	222 to 224	23	26	23	22	15	17	–
COc1ccc(-c2cc(-c3ccccc3)n3nc(-c4ccccc4)nc3n2)cc1 [Compound 9m, 5-(4-Methoxyphenyl)-2,7-diphenyl-1,2,4-triazolo[1,5-a]pyrimidine]	222 to 224	31	32	30	30	20	23	approximately 30 mm
